Legend:
Type in all cases: cell-based, SARS-CoV-2
[1] = tested on: SARS2-S SA variant (B.1.351); experiment: microbe, parasite or virus in culture; conditions: Severe acute respiratory syndrome coronavirus 2, read-out: SA IC50
[2] = tested on: SARS2-S UK variant (B.1.1.7); experiment: microbe, parasite or virus in culture; conditions: Severe acute respiratory syndrome coronavirus 2, read-out: UK IC50
[3] = tested on: SARS2-S N501Y-D614G; conditions: read-out: N501Y-D614G IC50
[4] = tested on: SARS2-S D614G; conditions: read-out: D614G IC50

CCCC[C@@H](C=O)NC(=O)[C@H](CC(C)C)NC(=O)OCc1ccccc1 [SR-914, calpeptin]
IC50 [1]: 6.58 nM | IC50 [2]: 34.7 nM | IC50 [3]: 8.98 nM | IC50 [4]: 11.5 nM
